From patent publication US20240239801A1, “PYRIMIDO[5,4,D]PYRIMIDINE COMPOUNDS, COMPOSITIONS COMPRISING THEM AND USES THEREOF” (Université de Montréal, priority 2021, published 2024)

System: RAS-mutant HCT-116 cells pERK/pMEK
Assay: Immunoblot analysis of pERK and pMEK
Type: cell-based, human
Settings: FIG. 2, 1 h treatment
Protocol: For immunoblotting analysis, 500,000 HCT-116 cells were plated in 1 mL of complete RPMI-1640 growth medium in 24-well flat-bottomed transparent dishes (Costar). Cells were maintained overnight at 37° C. under 5% CO2 before treatment with compounds' dilution series for one hour. Cells were then washed once in PBS and lized in 250 μL of Igepal Lysis Buffer (50 mM Tris-HCl pH 7.5, 150 mM NaCl, 1% Igepal-CA630, 1 mM EDTA, 10% Glycerol) supplemented with Leupeptin, Aprotinin, PMSF, phosphatase inhibitor cocktail (Sigma) and Na3VO4 at 4° C. for 15 minutes with gentle rocking. Cell extracts were then cleared by centrifugation at 20,000 g at 4° C. for 10 minutes. Cleared lysates were then transferred on ice in fresh tubes and then boiled in sample loading buffer (100 mM Tris-HCl pH 6.8, 4% SDS, 0.2% bromophenol blue, 20% glycerol, 200 mM β-mercaptoethanol) for 5 minutes prior to fractionation by SDS-PAGE and transfer to nitrocellulose membranes (PALL). […]

Nc1cccc2c1ncn2-c1ncc2ncnc(Nc3c(F)ccc(NS(=O)(=O)c4cccc(Cl)c4Cl)c3F)c2n1 [Example 80]
paradoxical induction of pERK or pMEK signaling (immunoblot): does not induce paradoxical induction of pERK or pMEK signaling
